Data as given in publication PMC9673142, “1,3-Diarylpyrazolyl-acylsulfonamides Target HadAB/BC Complex in Mycobacterium tuberculosis” (ACS Infectious Diseases, 2022).
In brackets after ≈: the same amount, converted by molar mass. Several values for one entry are separate records, joined by “and”; a condition that tells them apart may be missing. Identical values can stand only once. Entries after “also recorded” stand apart in the source; their conditions may differ. Like-named read-outs stand apart in the source and are kept apart here.

Experiments:
[1] = target: Mtb HadAB (Mycobacterium tuberculosis, UniProt I6WYY7+P9WFK1); assay: biochemical; settings: trans-2-C16:1-CoA 60 μM, mean ± SD of duplicate assays
[2] = test system: Mtb H37Rv; assay: microbe, parasite or virus in culture; type: cell-based; settings: Mycobacterium tuberculosis
[3] = test system: Mtb H37Rv mc^26206; assay: microbe, parasite or virus in culture; type: cell-based; settings: Mycobacterium tuberculosis, read-out: MIC Mtb WT
[4] = test system: Mtb HadBC; type: biochemical; settings: compound 50 μM, HadBC 130 nM, trans-2-C16:1-CoA 25 μM
[5] = target: HadA, HadB, BCG_0547c (HadD) (Mycobacterium bovis BCG, UniProt I6WYY7+P9WFK1); assay: biochemical; type: binding; settings: for competition from the bead matrices, HadA, HadB and HadD: at 0.49 μM, n = 3
[6] = target: T1, BCG_0628c (lpqN, Rv0583c) (Mycobacterium tuberculosis, UniProt O53780); assay: biochemical; type: binding, Mycobacterium bovis BCG
T1 sequence (O53780 20-228): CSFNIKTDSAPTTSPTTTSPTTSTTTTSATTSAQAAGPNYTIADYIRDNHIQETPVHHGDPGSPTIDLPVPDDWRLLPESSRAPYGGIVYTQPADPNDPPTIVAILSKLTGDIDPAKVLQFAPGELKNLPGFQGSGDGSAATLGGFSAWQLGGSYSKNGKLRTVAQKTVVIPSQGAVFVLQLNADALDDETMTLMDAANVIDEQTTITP

[7] = test system: Mtb H37RvMA; assay: microbe, parasite or virus in culture; type: cell-based; settings: Middlebrook 7H9/glycerol/ADC/tween-80
[8] = target: BCG_2231 (DlaT, Rv2215) (Mycobacterium bovis, UniProt P65634); assay: biochemical; type: binding, Mycobacterium bovis BCG
[9] = physchem
[10] = test system: Mtb; type: cell-based, Mycobacterium tuberculosis
[11] = test system: HepG2; assay: HepG2 cytotoxicity; settings: Homo sapiens
[12] = test system: mycolic acid biosynthesis in Mtb H37Rv mc^26206; type: cell-based; settings: 3× MIC, 24 h
[13] = HepG2, read-out: HepG2 IC50 (galactose)
[14] = HepG2, read-out: HepG2 IC50 (glucose)

| SMILES | IC50 ([1]; HadAB IC50, HadAB 22 nM) | MIC ([2]; read-out: Mtb MIC) [µM] | MIC [3] [µM] | HadBC % inhibition at 50 μM [4] | Mtb pMIC99 [10] | also measured |
| --- | --- | --- | --- | --- | --- | --- |
| O=c1[nH]nc(CCc2cn(-c3ccc(Br)cc3)nc2-c2ccc(Cl)cc2)o1 [Compound 12] | 4240 nM and 4200 nM | 19 (≈ 8.47 µg/mL) | 3.12 (≈ 1.39 µg/mL) |  |  |  |
| CCc1c(COC(=O)NS(C)(=O)=O)c(-c2ccc(Cl)cc2)nn1-c1ccc(Cl)cc1 [Compound 15] | 28000 nM | > 50 | 3.9 (≈ 1.83 µg/mL) | No inhibition |  |  |
| CS(=O)(=O)NC(=O)CCc1cn(-c2ccc(Br)cc2)nc1-c1ccncc1 [Compound 1] | 100 ± 10 nM |  |  |  | 6.2 | IC50 [5]: < 160 nM; competition from the bead matrices, HadA, HadB and HadD [5]: 91–92%; Kd [6]: 1800 nM; Compound 1 MIC, H37RvMA (WT reference strain) [7]: 1.9 µM; MIC ([7]; Mycobacterium tuberculosis, H37RVMA, read-out: Compound 1 MIC, H37RvMA (WT reference strain)): 1.9 µM (≈ 0.854 µg/mL); Kd [8]: 1000 nM; solubility [9]: 190 µM (≈ 85.4 µg/mL); IC50 [11, 13]: > 50000 nM; IC50 [11, 14]: > 50000 nM |
| CS(=O)(=O)NC(=O)NCc1cn(-c2ccc(C(F)(F)F)nc2)nc1-c1ccncc1 [Compound 11] | 62 nM and 60 nM |  | 0.625 (≈ 0.275 µg/mL) |  |  |  |
| CS(=O)(=O)NC(=O)CCc1cn(-c2ccc(Cl)cc2)nc1-c1ccc(Cl)cc1 [Compound 2] | 130 ± 20 nM | 4.7 (≈ 2.06 µg/mL) | < 0.625 | did not inhibit; also recorded: No inhibition | 5.5 | MIC ([2]; read-out: Mtb MIC (Middlebrook 7H9/DPCC/casitone/Tx)): 0.8 µM (≈ 0.351 µg/mL); MIC ([2]; read-out: Mtb MIC (Middlebrook 7H9/DPPC/cholesterol/BSA/Tx)): 4.7 µM (≈ 2.06 µg/mL); MIC ([2]; read-out: Mtb MIC (Middlebrook 7H9/casitone/Tx)): 0.6 µM (≈ 0.263 µg/mL); MIC ([2]; read-out: Mtb MIC (Middlebrook 7H9/glucose/BSA/Tx)): 4.7 µM (≈ 2.06 µg/mL); IC50 [5]: < 490 nM; competition from the bead matrices, HadA, HadB and HadD [5]: 56–62%; Kd [8]: 6600 nM; solubility [9]: 100 µM (≈ 43.8 µg/mL); IC50 [11, 13]: > 50000 nM; IC50 [11, 14]: > 50000 nM |
| CS(=O)(=O)NC(=O)CCc1cn(-c2ccc(Cl)cc2)nc1-c1ccc(C#CCN)cc1 [Compound 4] |  |  |  |  | 5.4 |  |
| CS(=O)(=O)c1nnc(Cc2cn(-c3ccc(Cl)cc3)nc2-c2ccncc2)o1 [Compound 13] | 102000 ± 17000 nM | 62.5 (≈ 26 µg/mL) | 3.75 (≈ 1.56 µg/mL) | 37±5% |  | inhibition of biosynthesis of mycolic acids [12]: 0–49% |
| CS(=O)(=O)NC(=O)NCc1cc(-c2ccc(Br)cc2)oc1-c1ccncc1 [Compound 14] | 20 ± 10 nM |  | < 0.243 |  |  |  |
| O=C(O)CCc1cn(-c2ccc(Br)cc2)nc1-c1ccc(Cl)cc1 [Compound 10] | 3300 ± 1700 nM | > 50 | 1.5 (≈ 0.609 µg/mL) | No inhibition |  |  |
| CS(=O)(=O)NC(=O)CCc1cn(-c2ccc(Br)cc2)nc1-c1ccc(Cl)cc1 [Compound 9] |  |  |  |  |  | IC50 ([1]; HadAB 22 nM, read-out: HadAB IC50): 30 ± 10 nM |
